Data reported in PMC12037037 (Proceedings of the National Academy of Sciences of the …, 2025).

How the values were obtained:
[1] = test system: C57BL/6J mice; test: Head-twitch response (HTR) assay; format: in vivo; conditions: (+)-JRT 1 mg/kg IP pretreatment 15 min + LSD 0.2 mg/kg IP; mean ± SEM
[2] = target: 5-HT7 (Homo sapiens, UniProt P34969); test: Functional assay at 5-HT7 (Fig. S4); format: cell-based
From the text: (§1) Figure S4. […] Radioligand binding (RLB) (top) and IP1 functional assays (bottom) for 5-HT1A (A), 5-HT5a (B), 5-HT6 (C), and 5-HT7 (D) receptors. Agonist or antagonist mode is indicated in the title of each graph. Data represent the mean ± SEM of 2 technical replicates.
(§2) 5-carboxamidotryptamine; ND = not determined for incomplete curves.
(§3) (1 picture or pasted object on this page, not shown here)

[3] = target: 5-HT1A (Homo sapiens, UniProt P08908); test: Functional assay at 5-HT1A (Fig. S4); format: cell-based
From the text: as §1, §2, §3

[4] = test system: C57BL/6J mice; test: 4-odor discrimination and reversal after unpredictable mild stress; format: in vivo
[5] = target: 5-HT5A (Homo sapiens, UniProt P47898); test: Functional assay at 5-HT5A (Fig. S4); format: cell-based
From the text: as §1, §2, §3

5-HT5A, sequence (P47898 whole entry): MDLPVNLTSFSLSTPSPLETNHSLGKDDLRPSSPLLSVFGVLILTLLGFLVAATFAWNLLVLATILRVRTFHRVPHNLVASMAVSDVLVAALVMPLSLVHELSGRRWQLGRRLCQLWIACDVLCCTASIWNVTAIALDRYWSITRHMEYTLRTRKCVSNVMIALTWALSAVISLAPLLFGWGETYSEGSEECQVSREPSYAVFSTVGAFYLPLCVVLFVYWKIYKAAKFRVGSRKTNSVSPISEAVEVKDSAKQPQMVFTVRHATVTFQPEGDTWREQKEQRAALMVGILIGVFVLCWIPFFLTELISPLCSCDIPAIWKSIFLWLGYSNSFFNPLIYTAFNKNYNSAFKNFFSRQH
5-HT7, sequence (P34969 whole entry): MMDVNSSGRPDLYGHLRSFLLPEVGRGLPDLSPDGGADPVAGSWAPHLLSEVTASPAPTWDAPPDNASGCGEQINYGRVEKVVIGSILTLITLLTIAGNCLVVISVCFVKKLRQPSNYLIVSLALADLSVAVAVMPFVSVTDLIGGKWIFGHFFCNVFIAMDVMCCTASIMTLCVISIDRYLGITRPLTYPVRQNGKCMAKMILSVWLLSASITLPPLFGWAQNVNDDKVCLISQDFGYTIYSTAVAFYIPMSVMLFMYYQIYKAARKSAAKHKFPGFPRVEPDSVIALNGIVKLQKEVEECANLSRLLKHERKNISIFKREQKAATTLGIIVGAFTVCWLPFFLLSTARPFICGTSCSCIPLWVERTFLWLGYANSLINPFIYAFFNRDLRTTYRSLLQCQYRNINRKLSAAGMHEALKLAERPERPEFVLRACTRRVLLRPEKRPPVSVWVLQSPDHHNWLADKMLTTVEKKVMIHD
5-HT1A, sequence (P08908 whole entry): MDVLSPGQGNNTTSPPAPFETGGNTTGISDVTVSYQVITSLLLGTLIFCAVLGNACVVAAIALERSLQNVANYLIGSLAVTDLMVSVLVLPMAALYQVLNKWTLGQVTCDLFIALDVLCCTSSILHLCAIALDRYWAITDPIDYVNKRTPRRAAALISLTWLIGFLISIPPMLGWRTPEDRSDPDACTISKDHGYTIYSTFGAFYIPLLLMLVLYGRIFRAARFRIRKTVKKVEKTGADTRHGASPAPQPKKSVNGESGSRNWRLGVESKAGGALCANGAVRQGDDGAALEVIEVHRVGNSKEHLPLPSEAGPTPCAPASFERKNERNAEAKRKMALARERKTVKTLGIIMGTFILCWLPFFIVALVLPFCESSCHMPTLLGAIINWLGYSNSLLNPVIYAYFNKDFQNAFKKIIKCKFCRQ

CCN(CC)C(=O)[C@@H]1C=C2c3cccc4ccn(c34)C[C@H]2N(C)C1 [(+)-JRT] was tested, and the “Head-twitches over 20 min (Figure 5A Antagonism)” value [1] was 1.500 ± 0.3450, the “Functional activity at 5-HT7, agonist mode” value [2] was “agonist or partial agonist” and the “Functional activity at 5-HT1A” value [3] was “agonist or partial agonist”. For the same compound, the “Discrimination (Figure 7B)” value ([4]; (+)-JRT 1 mg/kg IP + Stress (UMS), VEH + Stress 20.20 ± 1.843, VEH – Stress 21.27 ± 2.516) was 20.50 ± 2.212, the “Reversal (Figure 7B)” value ([4]; (+)-JRT 1 mg/kg IP + Stress (UMS), VEH + Stress 21.00 ± 2.385, VEH – Stress 13.64 ± 1.744) was 12.40 ± 1.118 and the “Total Trials (Figure S17)” value ([4]; Stress + (+)-JRT 1 mg/kg IP, Stress 41.20 ± 3.972, VEH 34.91 ± 2.661) was 32.90 ± 2.479. For the same compound, the “Functional activity at 5-HT5A” value [5] was “antagonist”.
